Legend:
[1] = tested on: MIA PaCa-2 human pancreatic cancer xenograft; assay: In vivo efficacy study of Compound-24 with Afatinib, MIA PaCa-2 xenograft; set-up: species or system nude mice
Protocol: Compound-24 (1 mg/kg; b.i.d.), Afatinib (12.5 mg/kg; q.d.) and Compound-24+Afatinib (Compound-24; 1 mg/kg; b.i.d+Afatinib; 12.5 mg/kg; q.d.).

[2] = tested on: MIA PaCa-2 human pancreatic cancer xenograft; assay: In vivo efficacy study of Compound-24 with Ulixertinib (BVD-523), MIA PaCa-2 xenograft (tumor fragments); set-up: species or system nude mice; conditions: Compound-24 alone, 1 mg/kg b.i.d.
Protocol: MIA PaCa-2 tumor fragments were implanted subcutaneously in nude mice. […] Compound-24 (1 mg/kg; b.i.d.), BVD-523 (25 mg/kg; b.i.d.) and Compound-24+BVD-523 (Compound-24; 1 mg/kg; b.i.d+BVD-523; 25 mg/kg; b.i.d.).

[3] = tested on: MIA PaCa-2 human pancreatic cancer xenograft; assay: In vivo efficacy study of Compound-24 with BI-3406, MIA PaCa-2 xenograft; conditions: Compound-24 alone, 1 mg/kg; day 15
Source text: The tumor-bearing mice were randomized once the tumors reached an average volume of approximately 155-159 mm^3 (Tumor volume range 107-248 mm^3).

Nc1nc2cc(CCC3=C[C@@H](n4ccc5c(N)ncnc54)[C@H](O)[C@@H]3O)cc(F)c2cc1Cl [Compound-24, (1S,2R,5R)-3-(2-(2-Amino-3-chloro-5-fluoroquinolin-7-yl)ethyl)-5-(4-amino-7H-pyrrolo[2,3-d]pyrimidin-7-yl)cyclopent-3-ene-1,2-diol]
% tumor growth inhibition ([1]; Compound-24 alone, 1 mg/kg b.i.d.): 48.03±5.75%
% tumor growth inhibition [2]: 58.83±9.92%
% tumor growth inhibition [3]: 47.88±12.12%

CN(C)C/C=C/C(=O)Nc1cc2c(Nc3ccc(F)c(Cl)c3)ncnc2cc1O[C@H]1CCOC1 [Afatinib, (E)-N-(4-(3-chloro-4-fluoroanilino)-7-[(3S)-oxolan-3-yl)oxoquinazolin-6-yl)-4-(dimethylamino)but-2-enamide, reference compound]
% tumor growth inhibition ([1]; Afatinib alone, 12.5 mg/kg q.d.): 58.68±5.14%
